US20190117675A1, “Compositions And Methods To Treat And/Or Prevent Vision Disorders Of The Lens Of The Eye” (Helix Holding Company, priority 2014, published 2019)

What was measured:
[1] = biological target: T1, αB-crystallin R120G mutant (Homo sapiens, UniProt P02511, R120G); assay: Negative-stain EM of aggregates treated with sterol in liposome; format: biochemical; conditions: negatively stained EM
T1 construct: made in house
T1 sequence (P02511 1-175 R120G): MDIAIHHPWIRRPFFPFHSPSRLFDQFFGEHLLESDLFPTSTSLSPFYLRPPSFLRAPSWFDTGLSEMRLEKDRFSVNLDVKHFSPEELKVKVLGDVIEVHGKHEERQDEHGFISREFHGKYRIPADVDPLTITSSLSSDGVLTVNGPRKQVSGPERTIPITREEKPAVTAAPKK
Method: Representative negatively stained EM pictures of the aggregates of αB-crystallin R120G mutant treated by liposome, lanosterol in liposome and cholesterol in liposome, respectively. The EM samples were stained by 1.25% uranyl acetate.
Quantitative analysis was performed by calculating the number of particles with length over 50 nm from six randomly picked viewing field. Each viewing field contained 30-50 particles.
The aggregates of the WT and mutated αA- and αB-crystallin proteins were obtained by heating the proteins solutions containing 1 M guanidine chloride (ultrapure, Sigma) with a concentration of 5 mg/ml at 60° C. for 48 h. The aggregates of the WT and mutated β- and γ-crystallins were prepared by heating the protein solutions at pH 3 and 37° C. for 48 h. The formation of aggregates was confirmed by turbidity (absorbance at 400 nm) and transmission electron microscope (EM) measurements. The preformed aggregates were resuspended in 20 mM PBS with a final concentration of 0.1 mg/ml (approximately 5 μM). The resuspended aggregates were treated by 50 μM lanosterol or cholesterol in liposomes formed by 50 μM DPPS at 37° C. […] The soluble proteins were determined by centrifuge the protein solutions to separate the supernatant and precipitation fractions. Then the protein concentration in the supernatant was determined by the Bradford method. […]

[2] = Lanosterol eye drop formulation evaluation (stability, irritation, intraocular bioavailability); conditions: dissolved in pure aqueous solution
From the text: The optimal formulation was selected based on the stability of the active ingredient, irritation, and intraocular bioavailability of the eye drops.

[3] = test system: aggregates of various WT and mutated crystallins; assay: In vitro protein assay: dissociation of preformed crystallin aggregates (turbidity, soluble protein, EM); format: biochemical; conditions: 37° C.; for dissociation of aggregates of various WT and mutated crystallins: in vitro protein assay, 50 μM sterol in 50 μM DPPS liposome
Method: Evaluation of the effect of lanosterol on the dissolution of crystallin aggregates by turbidity. Crystallin aggregates were formed by incubating 5mgml21 protein solution at 60° C. for 2 h (α-crystallins) or 37° C. for 48 h (β- and γ-crystallins) in the presence of 1M guanidine chloride. The preformed aggregates were re-suspended in PBS at a final protein concentration of 0.2 mg/ml and were treated with 500 μM sterols in 500 μM DPPC liposome and incubated at 37° C. for 24 h. Aggregates treated with 500 μM DPPC liposome only were used as the controls.
The α-crystallin aggregates were formed by incubating 5 mg/ml protein solutions at 60° C. for 48 h in the presence of 1 M guanidine chloride. The β- and γ-crystallin aggregates were prepared by incubating the protein solutions at 37° C. and pH 3 for 48 h. The preformed aggregates were re-suspended in PBS with a final protein concentration of 0.1 mg/ml. The re-suspended aggregates were treated by 50 μM sterols in 50 μM DPPS liposome and incubated at 37° C. for 144 h. The aggregates treated by 50 μM DPPS liposome were used as the controls. The supernatant and precipitation fractions were separated by centrifugation. The protein concentrations in the supernatant fraction were determined by absorbance at 280 nm and the percentages of the soluble proteins were calculated from three independent repetitions.
The recombinant his-tagged WT and mutated β- and γ-crystallin proteins were overexpressed in E. coli Rosetta and purified by Ni-NTA affinity column followed by gel filtration chromatography using the same protocol as those described elsewhere 13,14,16,18. The overexpression and purification of the non-tagged αA- and αB-crystallins were performed as described previously 19. The purity of the proteins were estimated to be above 95% as evaluated by one homogeneous band on 12.5% SDS-PAGE, 10% native-PAGE and a single peak in the size-exclusion chromatographyprofile. The protein concentration was determined according to the Bradford method by using BSA as the standard 20. All protein samples were prepared in 20 mM PBS buffer containing 150 mM NaCl, 1 mM EDTA and 1 mM DTT.
The aggregates of the WT and mutated αA- and αB-crystallin proteins were obtained by heating the proteins solutions containing 1 M guanidine chloride (ultrapure, Sigma) with a concentration of 5 mg/ml at 60° C. for 48 h. The aggregates of the WT and mutated β- and γ-crystallins were prepared by heating the protein solutions at pH 3 and 37° C. for 48 h. The formation of aggregates was confirmed by turbidity (absorbance at 400 nm) and transmission electron microscope (EM) measurements. The preformed aggregates were resuspended in 20 mM PBS with a final concentration of 0.1 mg/ml (approximately 5 μM). The resuspended aggregates were treated by 50 μM lanosterol or cholesterol in liposomes formed by 50 μM DPPS at 37° C. After 72 h treatment, the protein solutions were used for negative-stained EM observations. After 144 h incubation, the protein solutions were used for turbidity measurements and determinations of protein concentrations in the soluble fractions. The soluble proteins were determined by centrifuge the protein solutions to separate the supernatant and precipitation fractions. Then the protein concentration in the supernatant was determined by the Bradford method. The EM samples were prepared by depositing the protein solutions onto a freshly glow-discharged carbon coated copper grid. […]

## CC(C)=CCC[C@@H](C)[C@H]1CC[C@@]2(C)C3=C(CC[C@]12C)[C@@]1(C)CC[C@H](O)C(C)(C)[C@@H]1CC3 [Lanosterol]
[1]
  dissociation of aggregates formed by αB-crystallin R120G mutant (number of particles with length over 50 nm): dissociates the aggregates
[2]
  stability and solubility of lanosterol: poor stability and low solubility
[3]; 500 μM sterols in 500 μM DPPC liposome, 24 h, 0.2 mg/ml protein
  dissolution of crystallin aggregates by turbidity: could dissociate the aggregates
[3]
  dissociation of aggregates of various WT and mutated crystallins: can dissociate the preformed amyloid-like fibrils/aggregates
[3]; listed as lanosterol
  dissociation of aggregates of various WT and mutated crystallins: could dissociate the aggregates
